Experimental data: ChEMBL document CHEMBL1177697, “Evolution of poly(ADP-ribose) polymerase-1 (PARP-1) inhibitors. From concept to clinic” (J Med Chem, 2010)
Values belong to the compound of their own block, whether it stands above or below them.

Assays:
[1] = target: T1, Poly [ADP-ribose] polymerase 1 (Homo sapiens, UniProt P09874)
[2] = system: LoVo; test: Potentiation of TMZ-induced antiproliferation against human LoVo cells at 0.4 uM; assay type: functional
[3] = target: Poly [ADP-ribose] polymerase 2 (Homo sapiens, UniProt Q9UGN5); test: Inhibition of PARP2
[4] = Half life in human patient at 200 to 800 mg, iv; assay type: ADME, organism-based; details: in vivo
[5] = system: Rattus norvegicus; test: Neuroprotective effect in rat transient MCAO model assessed as reduction in infarct volume at 40 mg/kg, iv administered prior to reperfusion; set-up: scale not given: the % may be the effect or the level left
[6] = system: Rattus norvegicus; test: Cardioprotective effect in rat cardiac ischemia model assessed as reduction in infarct size at 80 mg/kg, iv administered prior to reperfusion; assay type: functional, Heart; set-up: scale not given: the % may be the effect or the level left
[7] = Half life in human patient at 2.8 mg/kg, iv; assay type: ADME, organism-based; set-up: dose 2.8 mg/kg, route intravenous; details: in vivo
[8] = Ratio of drug level in brain to plasma in rat; assay type: ADME
[9] = system: L1210; test: Cytotoxicity against mouse L1210 cells; assay type: functional
[10] = system: Liver microsomes; test: Intrinsic clearance in human liver microsome; assay type: ADME
[11] = system: Rattus norvegicus; test: Cardioprotective effect in rat ischemia/reperfusion-induced myocardial infarction model assessed as reduction in infarct size at 3 mg/kg/hr, iv administered prior to reperfusion; assay type: functional, Myocardium; set-up: scale not given: the % may be the effect or the level left
[12] = system: Rattus norvegicus; test: Cardioprotective effect in rat ischemia/reperfusion-induced myocardial infarction model assessed as reduction in infarct size at 3 mg/kg/hr, iv administered prior to reperfusion measured after 4 hrs; assay type: functional, Myocardium; set-up: scale not given: the % may be the effect or the level left
[13] = system: Rattus norvegicus; test: Cardioprotective effect in rat ischemia/reperfusion-induced myocardial infarction model assessed as reduction in infarct size at 3 mg/kg/hr, iv administered prior to reperfusion measured after 2 hrs; assay type: functional, Myocardium; set-up: scale not given: the % may be the effect or the level left
[14] = in vivo; details: rat, brain/plasma, 10 mg/kg
Description: Ratio of drug level in brain to plasma in rat at 10 mg/kg/hr after 6 hrs

[15] = target: T1, Poly [ADP-ribose] polymerase 1; test: Inhibition of PARP1 at 9.2 uM; set-up: scale not given: the % may be the effect or the level left
[16] = Selectivity for […]
[17] = Half life in iv dosed human patient; assay type: ADME, organism-based; details: in vivo
[18] = Biodistribution in human patient urine; assay type: ADME, organism-based; details: in vivo
[19] = system: Homo sapiens; test: Toxicity in iv infused human patients assessed as maximum tolerated dose; assay type: organism-based; details: in vivo
[20] = system: Rattus norvegicus; test: Cardioprotective effect in rat ischemia/reperfusion-induced myocardial infarction model assessed as reduction in infarct size at 20 mg/kg, iv administered 10 mins prior to reperfusion; set-up: scale not given: the % may be the effect or the level left
[21] = system: Rattus norvegicus; test: Neuroprotective effect in rat transient MCAO model assessed as reduction in infarct volume at 10 mg/kg/hr, iv administered prior to reperfusion; set-up: scale not given: the % may be the effect or the level left

T1 sequence (P09874 whole entry): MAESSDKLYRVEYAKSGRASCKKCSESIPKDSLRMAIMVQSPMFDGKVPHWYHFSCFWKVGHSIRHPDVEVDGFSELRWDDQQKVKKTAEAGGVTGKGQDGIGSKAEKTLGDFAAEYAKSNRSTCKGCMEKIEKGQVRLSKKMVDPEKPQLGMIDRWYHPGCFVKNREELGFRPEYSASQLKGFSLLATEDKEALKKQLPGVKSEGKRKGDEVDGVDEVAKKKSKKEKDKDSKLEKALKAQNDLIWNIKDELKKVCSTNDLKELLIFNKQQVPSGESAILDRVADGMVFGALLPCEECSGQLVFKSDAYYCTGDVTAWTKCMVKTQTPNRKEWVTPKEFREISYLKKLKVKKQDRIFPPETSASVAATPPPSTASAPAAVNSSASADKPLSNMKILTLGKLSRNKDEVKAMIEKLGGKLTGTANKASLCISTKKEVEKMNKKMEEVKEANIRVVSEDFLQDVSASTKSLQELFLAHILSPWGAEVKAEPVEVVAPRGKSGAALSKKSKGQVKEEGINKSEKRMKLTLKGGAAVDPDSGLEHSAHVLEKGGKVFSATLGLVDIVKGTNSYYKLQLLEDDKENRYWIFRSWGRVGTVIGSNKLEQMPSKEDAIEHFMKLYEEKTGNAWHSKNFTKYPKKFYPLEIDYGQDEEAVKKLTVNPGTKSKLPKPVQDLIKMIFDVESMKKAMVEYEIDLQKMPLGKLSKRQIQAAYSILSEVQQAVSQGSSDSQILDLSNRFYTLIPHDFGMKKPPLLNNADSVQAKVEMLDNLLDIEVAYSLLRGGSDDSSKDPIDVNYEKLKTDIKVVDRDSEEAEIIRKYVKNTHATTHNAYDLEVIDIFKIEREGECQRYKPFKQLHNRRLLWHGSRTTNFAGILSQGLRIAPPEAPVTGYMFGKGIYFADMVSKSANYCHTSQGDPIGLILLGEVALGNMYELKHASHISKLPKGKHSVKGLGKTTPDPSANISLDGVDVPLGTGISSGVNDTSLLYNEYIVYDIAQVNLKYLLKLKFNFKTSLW
Sequence of Poly [ADP-ribose] polymerase 2 (Q9UGN5 whole entry): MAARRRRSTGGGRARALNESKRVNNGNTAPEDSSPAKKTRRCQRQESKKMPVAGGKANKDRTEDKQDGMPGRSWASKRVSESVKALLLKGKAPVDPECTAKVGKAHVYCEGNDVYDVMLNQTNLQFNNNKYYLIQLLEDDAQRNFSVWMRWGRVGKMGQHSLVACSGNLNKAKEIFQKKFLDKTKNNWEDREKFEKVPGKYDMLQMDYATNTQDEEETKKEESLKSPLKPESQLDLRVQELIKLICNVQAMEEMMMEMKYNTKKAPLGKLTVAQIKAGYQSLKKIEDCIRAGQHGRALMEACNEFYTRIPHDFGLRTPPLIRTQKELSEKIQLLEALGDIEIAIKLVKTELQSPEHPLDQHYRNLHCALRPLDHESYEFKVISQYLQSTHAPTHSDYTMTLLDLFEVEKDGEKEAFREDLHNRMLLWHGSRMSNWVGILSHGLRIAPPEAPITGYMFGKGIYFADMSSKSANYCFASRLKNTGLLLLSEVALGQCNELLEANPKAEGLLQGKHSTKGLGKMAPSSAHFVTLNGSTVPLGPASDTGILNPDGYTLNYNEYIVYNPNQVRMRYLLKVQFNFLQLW

IC50 [1]: 270 nM
SMILES: O=c1[nH]ccc2c(Br)cccc12

SMILES: CN(C)Cc1ccc(-c2nc3cccc4c3n2CCNC4=O)cc1
PF50 [2]: 5.5

SMILES: O=c1[nH]c(CCCN2CC=C(c3ccc(F)cc3)CC2)nc2c(Cl)cccc12
IC50 [3]: 500 nM

half-life [4]: 7.5 h
SMILES: OC[C@H]1O[C@@H](n2cnc3c(O)ncnc32)[C@H](O)[C@@H]1O [INOSINE]

SMILES: CN1CCN(c2ccc3nc(O)c4ccccc4c3n2)CC1
Activity [5]: 44%
Activity [6]: 25%

half-life [7]: 4 min
SMILES: NC(=O)c1ccc(I)c([N+](=O)[O-])c1 [INIPARIB]

Kp [8]: 0.82
SMILES: Cc1nc2cccc(Cl)c2c(=O)[nH]1

SMILES: Cc1nc2c(O)cccc2c(=O)[nH]1
Activity [9]: 90%

CL [10]: < 1 mL/min/g
SMILES: O=C1CCC(=O)N1c1cc(Cc2n[nH]c(=O)c3ccccc23)ccc1F

SMILES: CN(C)Cc1ccc(-c2c[nH]c(=O)c3cccc(O)c23)cc1
Activity [11]: 57%
Activity [12]: 47%
Activity [13]: 50%
Kp at 6 h [14]: 0.8

SMILES: O=C1NCCc2c(-c3ccc(CN4CCCC4)cc3)[nH]c3cccc1c23
PF50 [2]: 7.8

IC50 [1]: 1000 nM
Activity [15]: 88%
SMILES: NC(=O)c1cccc(C2CO2)c1 (centres undefined)

SMILES: O=c1[nH]cnc2ccccc12 [QUINAZOLINONE]
IC50 [1]: 15800 nM

SMILES: CN(C)Cc1ccc(-c2cc3cccc4c3n2CCNC4=O)cc1
PF50 [2]: 3.8

IC50 [1]: 890 nM
SMILES: O=c1[nH]cc(-c2ccccc2)c2ccccc12

Selectivity ratio [16]: 10
IC50 [3]: 8 nM
SMILES: N#Cc1ccc(-c2cnc3cccc(C(N)=O)c3n2)cc1

SMILES: CNCc1ccc(-c2[nH]c3cc(F)cc4c3c2CCNC4=O)cc1 [RUCAPARIB]
half-life [17]: 9.5 h
Drug uptake [18]: 11%
MTD [19]: 200 mg/m2

SMILES: Nc1ncnc2c1ncn2[C@@H]1O[C@H](C(=O)N2CCN(CC(=O)Nc3cccc4c3CNC4=O)CC2)[C@@H](O)[C@H]1O
Activity [20]: 35%
Activity [21]: 57%

SMILES: CCc1cc2cc(C(CCN3CCCCC3)Cc3ccc4c(c3)OCCO4)ccc2[nH]c1=O (centres undefined)
IC50 [1]: 9.2 nM

IC50 [1]: 240 nM
SMILES: NC(=O)c1cccc2[nH]cnc12
